Experiments:
U-87 cells = experiment: Cell viability (cell count) with U-87 cells; type: cell-based; conditions: Homo sapiens, U-87 MG, 72 hours, 37° C., MEM pH 7.0, read-out: EC90 (concentration resulting in greater than 90% decrease of cell numbers)
caspase 3 = experiment: In vitro caspase assay (ELISA) in U-87 cells; type: cell-based, human; conditions: 5 mM, 18 hours after the addition
Method: U-87 cells were used to test the effect of Compound A on the apoptotic pathway.
U-87 cells were seeded in MEM alone or in MEM supplemented with 5 mM of Compound A, in MTP. For in vitro caspase assay, the cell culture plates were removed from incubator, cells were lysed and centrifuged and the supernatant was tested for caspase levels (C3). Supernatants from each sample were tested side by side on a new microtitre plate by ELISA with AP labelled IgG C3 antibody, pNPP chromogen (Enzo Diagnostics, Farmingdale, N.Y.). Caspase assays were performed immediately after the addition of the MEM medium, with or without Compound A, and 18 hours after the addition.

mice = experiment: Preclinical safety study in mice; type: in vivo; conditions: 300 mg/kg or 500 mg/kg orally (PO), up to 72 hours
Method: Preclinical safety studies were performed with administration of different levels of doses of Compound A to mice. Toxicity was analyzed with standard clinical chemical and histopathological examination. Five mice (n=5) were treated with 300 mg/kg or 500 mg/kg orally (PO) with one hour pretreatment for PO. Autonomic signs/mortality was measured during the first hour and mortality was measured again at 3, 24, 48 and 72 hours after administration.

Gram positives = experiment: Antibiotic activity, plate counts on Mueller-Hinton agar, Gram positives; type: cell-based; conditions: plate counts after overnight incubation at 37° C.
HepG2 cells = experiment: Cell viability of HepG2 cell line; type: cell-based; conditions: Homo sapiens
Method: The antineoplastic activities of Compound A were tested with U-87, a human glioblastoma/astrocytoma cell line and HepG2, a human liver carcinoma cell line.
The antineoplastic activity of Compound A was also measured with HepG2 cells.

Gram negative strains = experiment: Antibiotic activity, plate counts on Mueller-Hinton agar, Gram negative ATCC strains; type: cell-based; conditions: 2 mg/ml, 1 mg/ml; plate counts after overnight incubation at 37° C.
Method: The antibiotic activity of S-2-amino-3(3-phenylacetylimidazol-4-yl)propanoic acid (Compound A) was tested with a panel of standard ATCC bacteria, including 13315 Proteus vulgaris, 13883 Klebsiella pneumoniae, 25922 Escherichia coli, 27853 and Pseudomomas aeruginosa.
Doubling dilutions of Compound A were tested on its antibiotic potentials. […] Plate counts were performed. All petri plates inoculated with 1 ml 0.5McFarland turbidity of corresponding ATCC strain.

N[C@@H](Cc1cncn1C(=O)Cc1ccccc1)C(=O)O [Compound A, (S)-2-amino-3-(3-phenylacetylimidazol-4-yl) propanoic acid] was tested, and the EC90 (U-87 cells) was 5 mM, the “increase of caspase 3” value (caspase 3) was “Exponential increase, in the scale of several orders of magnitude” and the “toxicity (autonomic signs/mortality, clinical chemical and histopathological examination)” value (mice) was “No toxicity was observed”. For the same compound, the “inhibition of Gram positives” value (Gram positives) was “No inhibition”, the EC90 (HepG2 cells) was 5 mM and the cytotoxicity at 5000 µM (HepG2 cells; 5 mM, read-out: decrease in cell viability) was > 90%. For the same compound, the “inhibition of Gram negative strains” value (Gram negative strains) was “did show inhibition”.

— US20110245311A1, “Histidine Derivatives” (priority 2010, published 2011)
